Assays:
Rhizoctonia solani [1] = assay: Fungicidal vs fungistatic potential (regrowth of mycelial plugs on fresh PDA, 7 days); type: cell-based, Rhizoctonia solani AG-4, isolate Rs 23A; details: fumigation
Method: The fungicidal and fungistatic potential of the PEs were determined by the method described by Garber and Houstan (Garber R. H., and B. R. Houston, Phytopathology, 49: 449-450 (1959)). In brief, three 5 mm diameter plugs were taken from the peripheral mycelial growth from each plate and placed in a fresh PDA plate. Following incubation at room temperature for 7 days, observations were recorded for new mycelial growth (fungistatic) or no mycelial growth (fungicidal). As control, peripheral mycelial plugs from soybean oil amended PDA plates were checked for fresh mycelial growth in fresh PDA plates.

cucumber seeds = assay: Greenhouse assay of seed germination and phytotoxicity, soil treated with plant extract alone; details: cucumber, soil amended with 0.3% PE, no pathogen
Method: Soil treatment: For each treatment, 300 g of dry greenhouse soli (Pro-mix, Premier Horticulture LTD, Red Hill, Pa.) was thoroughly mixed with Rhizoctonia inoculum and incubated for 15 days as described above. […] The infested soil treated with only the carrier solution served as an untreated control. Following the treatment, the soil was thoroughly stirred to mix the contents and incubated in a double polythene bag closed tightly in the dark at room temperature for four days for fumigation to occur. Following the incubation, the bag was opened to allow as much PE to dissipate as possible. This was done by sprinkling the surface soil with sterile water every other day, and stirring the soil once every day for seven days. For assay of effect on seed germination and phytotoxicity of the plant extracts, soil was treated with plant extract formulations alone.
Greenhouse studies: Treated soil from each treatment was distributed to 4-inch plastic pots into which 12 seeds of cucumbers (95-100% germination) were sown and lightly watered to keep soil moist. The treatments were color coded and pots were randomized across treatment. All plants were kept in a greenhouse between 20° C. (night) to 26° C. (day) with 14 h of light. There were three pots per treatment in each experiment, and the experiment was repeated three times. As positive control, a broad spectrum popular soil fungicide Banrot® 40 WP (The Scotts Company, Ohio) was used following manufacturer's recommendation to control the disease. Total number of seedlings without any sign of damping off in each pot was recorded and percentage of disease suppression were calculated four weeks after sowing cucumber seeds.

Rhizoctonia solani [2] = assay: Poison food technique (contact action), mycelial growth inhibition in PDA; type: cell-based, Rhizoctonia solani AG-4, isolate Rs 23A; details: for PoisonB1 % inhibition: poison bed experiment 1; for PoisonB2 % inhibition: poison bed experiment 2
Method: (§1) Fungal isolate and preparation of inoculum: Rhizoctonia solani AG-4, isolate Rs 23A is a highly virulent pathogenic isolate which infects many vegetables, ornamentals and turfgrasses (Lewis, J. A., and G. C. Papavizas, Soil Biology and Biochemistry, 9:195-201 (1987)). The fungus was grown in potato dextrose agar (PDA) plates and fungal plugs from the freshly growing mycelium were mixed with moist sterilized cracked wheat in a 2 L flask for 15 days in dark at 22° C. (Lakshman, D. K., et al., Proceedings of the National Academy of Science, USA, 95: 6425-6429 (1998)). The infested wheat was air dried in a sterile hood for 3 days, blended in a homogenizer and sieved through a mesh and stored at 2° C. before soil inoculation. A dose response of the inocula was carried out by thoroughly mixing using 0.25, 0.5, 0.75, 1.0, 1.25 and 1.50 g inoculums per Kg dry weight potting soil plus sterile water to maintain 25-30% moisture and incubating at room temperature for two weeks before sowing cucumber (cv muncher) seeds with the infested soil. The percent germination and post-emergence damping off of cucumber seedlings were recorded. The lowest inoculums dose that induced 100% postemergence damping off was estimated to be 1 to 1.25 g/Kg soil for inocula prepared over the span of the experiments. For soil fumigation with plant extracts (PEs), each time the minimum inoculum dose giving rise to 100% damping off was used.
In vitro bioassays: Two in vitro bioassay methods were used to investigate the mycelial growth inhibitory potentials of PEs. In the poison food technique, test chemical/plant extract was mixed at concentrations of 15, 30, 45, 60, 75, and 150 μl per 20 ml autoclaved PDA at 50° C., poured on three sterile disposable plastic plates (100×15 mm, Fisherbrand) at 20 ml/plate and cooled to room temperature to solidify (Dhingra, O.D., and J. B. Sinclair, 1995, Basic Plant Pathology Methods, 2nd Edition, Lewis Publishers, Boca Raton and London). […] Each plate was seeded in the center with a 5 mm diameter agar disk of the freshly grown Rhizoctonia pathogen, mycelial side facing the medium, and sealed with stretched Parafilm® M (Fisher Scientific). The plates were incubated in the dark at room temperature and when the pathogen reached to the edge of the plates in the control treatment (soybean oil), radial measurement of fungal growth in plates treated with PEs were recorded by taking three measurements from each plate. The experiment was repeated one more time. The percent mycelial growth inhibition (MGI) due to PE was calculated using the following formula: […] where dc=Avg. radial growth in mm of pathogen in control plate; dt=avg. radial growth in mm of pathogen in treated plate.

Rhizoctonia solani [3] = assay: Filter disk fumigation method, mycelial growth inhibition on PDA; type: cell-based, Rhizoctonia solani AG-4, isolate Rs 23A; details: for Fumig1 % inhibition: fumigation experiment 1; for Fumig2 % inhibition: fumigation experiment 2
Method: as §1
In the second protocol, the chemical was kept not in direct contact with the fungus and we hypothesized that the plant extract will most likely influence the growth of the pathogen by fumigation action. In this approach, three sterile 15 mm filter paper (Whatman International Ltd, Maidstone, UK) disks were placed on the edge of each of three plates on the PDA. Each disk was impregnated in the center with various amounts (5-50 ul/disk) of the test solution/suspension. For negative control, only soybean oil was placed in the filter disk. […] The average radial growth was calculated and the experiment was repeated one more time. Percent growth inhibition was calculated as reported for poison bed assay.

Rhizoctonia solani [4] = assay: Greenhouse suppression of damping off of cucumber seedlings in R. solani infested soil amended with plant extract; type: in vivo, Rhizoctonia solani AG-4, isolate Rs 23A; details: cucumber damping off, soil amendment at 0.3% (v/w), four weeks after sowing

Which “Effect (fumigation)” value (Rhizoctonia solani [1]; amount oil 15 μL/20 mL plate) does the source give for `CC(C)=CCC/C(C)=C/CO` [Geraniol] here?
Its value is “S”.

And the “Effect (fumigation)” value (Rhizoctonia solani [1]; amount oil 30 μL/20 mL plate)?
Its value is “S”.

And the “Effect (fumigation)” value (Rhizoctonia solani [1]; amount oil 45 μL/20 mL plate)?
The value was “S”.

What about the “Effect (fumigation)” value (Rhizoctonia solani [1]; amount oil 60 μL/20 mL plate) of the same molecule?
The value was “S”.

And the “Effect (fumigation)” value (Rhizoctonia solani [1]; amount oil 75 μL/20 mL plate)?
Its value is “S”.

What about the “Effect (fumigation)” value (Rhizoctonia solani [1]; amount oil 150 μL/20 mL plate) of the same molecule?
The value was “S”.

And the “Avg. seed germination (+ PE only)” value (cucumber seeds; 12 seeds sown per pot)?
Its value is 11.33.

And the “% Seed germination (+ PE only)” value (cucumber seeds)?
Its value is 94.41%.

What about the PoisonB1 % inhibition (Rhizoctonia solani [2]; amount oil 15 μL/20 mL plate) of the same molecule?
The PoisonB1 % inhibition was 100%.

What about the PoisonB2 % inhibition (Rhizoctonia solani [2]; amount oil 15 μL/20 mL plate) of the same molecule?
Its PoisonB2 % inhibition is 100%.

What about the PoisonB1 % inhibition (Rhizoctonia solani [2]; amount oil 30 μL/20 mL plate) of the same molecule?
Its PoisonB1 % inhibition is 100%.

What about the PoisonB2 % inhibition (Rhizoctonia solani [2]; amount oil 30 μL/20 mL plate) of the same molecule?
The PoisonB2 % inhibition was 100%.

And the PoisonB1 % inhibition (Rhizoctonia solani [2]; amount oil 45 μL/20 mL plate)?
The PoisonB1 % inhibition was 100%.

And the PoisonB2 % inhibition (Rhizoctonia solani [2]; amount oil 45 μL/20 mL plate)?
The PoisonB2 % inhibition was 100%.

And the PoisonB1 % inhibition (Rhizoctonia solani [2]; amount oil 60 μL/20 mL plate)?
The PoisonB1 % inhibition was 100%.

What about the PoisonB2 % inhibition (Rhizoctonia solani [2]; amount oil 60 μL/20 mL plate) of the same molecule?
Its PoisonB2 % inhibition is 100%.

What about the PoisonB1 % inhibition (Rhizoctonia solani [2]; amount oil 75 μL/20 mL plate) of the same molecule?
The PoisonB1 % inhibition was 100%.

And the PoisonB2 % inhibition (Rhizoctonia solani [2]; amount oil 75 μL/20 mL plate)?
Its PoisonB2 % inhibition is 100%.

And the PoisonB1 % inhibition (Rhizoctonia solani [2]; amount oil 150 μL/20 mL plate)?
The PoisonB1 % inhibition was 100%.

What about the PoisonB2 % inhibition (Rhizoctonia solani [2]; amount oil 150 μL/20 mL plate) of the same molecule?
The PoisonB2 % inhibition was 100%.

And the Fumig1 % inhibition (Rhizoctonia solani [3]; amount oil 15 μL/20 mL plate)?
The Fumig1 % inhibition was 51%.

And the Fumig2 % inhibition (Rhizoctonia solani [3]; amount oil 15 μL/20 mL plate)?
Its Fumig2 % inhibition is 15%.

What about the Fumig1 % inhibition (Rhizoctonia solani [3]; amount oil 30 μL/20 mL plate) of the same molecule?
Its Fumig1 % inhibition is 56%.

And the Fumig2 % inhibition (Rhizoctonia solani [3]; amount oil 30 μL/20 mL plate)?
Its Fumig2 % inhibition is 34%.

And the Fumig1 % inhibition (Rhizoctonia solani [3]; amount oil 45 μL/20 mL plate)?
Its Fumig1 % inhibition is 62%.

What about the Fumig2 % inhibition (Rhizoctonia solani [3]; amount oil 45 μL/20 mL plate) of the same molecule?
Its Fumig2 % inhibition is 31%.

What about the Fumig1 % inhibition (Rhizoctonia solani [3]; amount oil 60 μL/20 mL plate) of the same molecule?
The Fumig1 % inhibition was 66%.

What about the Fumig2 % inhibition (Rhizoctonia solani [3]; amount oil 60 μL/20 mL plate) of the same molecule?
Its Fumig2 % inhibition is 54%.

What about the Fumig1 % inhibition (Rhizoctonia solani [3]; amount oil 75 μL/20 mL plate) of the same molecule?
Its Fumig1 % inhibition is 73%.

What about the Fumig2 % inhibition (Rhizoctonia solani [3]; amount oil 75 μL/20 mL plate) of the same molecule?
The Fumig2 % inhibition was 67%.

What about the Fumig1 % inhibition (Rhizoctonia solani [3]; amount oil 150 μL/20 mL plate) of the same molecule?
The Fumig1 % inhibition was 77%.

And the Fumig2 % inhibition (Rhizoctonia solani [3]; amount oil 150 μL/20 mL plate)?
The Fumig2 % inhibition was 61%.

And the “% Disease suppression (+ PE + R. solani)” value (Rhizoctonia solani [4])?
Its value is 77.75%.

— US8871280B1, “Compositions and methods for treating fungal activity in plants or soil” (The United States of America, as represented by the …, priority 2011, dated 2014)
